What all share (experiment): relative viability (nuclei count vs DMSO), 5 days (fraction); higher = more cells survive
Compound in the test “Tivantinib + Dasatinib”: O=C1NC(=O)[C@@H](c2cn3c4c(cccc24)CCC3)[C@@H]1c1c[nH]c2ccccc12 [Tivantinib] + Cc1nc(Nc2ncc(C(=O)Nc3c(C)cccc3Cl)s2)cc(N2CCN(CCO)CC2)n1 [Dasatinib] (partner 0.075 µM)
Put shortly:
(§1)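 Medians of duplicate plates are given as relative viability. That measure is the nuclei count in treated wells divided by the count in vehicle wells. Counts were taken on 4× images of lung cancer cell lines in 1536-well plates, 5 days after pin-tool dosing the day after seeding with one drug alone or a fixed anchor-drug dose plus five library-drug doses (not always all listed) in √10 steps.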

Compound in the test “Tivantinib + Bortezomib”: O=C1NC(=O)[C@@H](c2cn3c4c(cccc24)CCC3)[C@@H]1c1c[nH]c2ccccc12 [Tivantinib] + CC(C)C[C@H](NC(=O)[C@H](Cc1ccccc1)NC(=O)c1cnccn1)B(O)O [Bortezomib] (partner 0.002 µM)
Put shortly:
as §1

Compound in the test “Tivantinib + Olaparib”: O=C1NC(=O)[C@@H](c2cn3c4c(cccc24)CCC3)[C@@H]1c1c[nH]c2ccccc12 [Tivantinib] + O=C(c1cc(Cc2n[nH]c(=O)c3ccccc23)ccc1F)N1CCN(C(=O)C2CC2)CC1 [Olaparib] (partner 8 µM)
Put shortly: as §1

Compound in the test “Crenolanib + Tozasertib”: CC1(COc2ccc3c(c2)ncn3-c2ccc3cccc(N4CCC(N)CC4)c3n2)COC1 [Crenolanib] + Cc1cc(Nc2cc(N3CCN(C)CC3)nc(Sc3ccc(NC(=O)C4CC4)cc3)n2)n[nH]1 [Tozasertib] (partner 0.1 µM)
The essentials: as §1

Turning to UMC-11, the relative viability in the test with Tivantinib + Dasatinib (first compound 0.01 µM) was found to be 0.43; with Tivantinib + Dasatinib (first compound 0.03162 µM), 0.491; in the test with Tivantinib + Dasatinib (first compound 0.1 µM), 0.421; with Tivantinib + Dasatinib (first compound 0.3162 µM), 0.614; with Tivantinib + Bortezomib (first compound 0.01 µM), 0.678; with Tivantinib + Bortezomib (first compound 0.03162 µM), 0.734. Further, the relative viability in the test with Tivantinib + Bortezomib (first compound 0.1 µM) was found to be 0.551; with Tivantinib + Bortezomib (first compound 0.3162 µM) it was 0.969; with Tivantinib + Olaparib (first compound 0.01 µM), 0.354; with Tivantinib + Olaparib (first compound 0.03162 µM), 0.341; with Tivantinib + Olaparib (first compound 0.1 µM), 0.365; with Tivantinib + Olaparib (first compound 0.3162 µM), 0.362. Also, the relative viability with Crenolanib + Tozasertib (first compound 0.01 µM) stood at 0.193; with Crenolanib + Tozasertib (first compound 0.03162 µM), 0.207; with Crenolanib + Tozasertib (first compound 0.1 µM), 0.213; in the test with Crenolanib + Tozasertib (first compound 0.3162 µM) it was 0.189; in the test with Crenolanib + Tozasertib (first compound 1 µM), 0.192.

Values taken from the supplement of paper PMC10307832.
